Measurements: ChEMBL document CHEMBL4376803, “Recent Advances in the Exploration of Therapeutic Analogues of Gramicidin S, an Old but Still Potent Antimicrobial Peptide” (J Med Chem, 2019)
Square brackets hold non-standard residues; d marks the D form. Peptide text beside a SMILES is read from it. Orn = NCCC[C@H](N)C(=O)O

Key:
[1] = Haemolytic activity in human erythrocytes incubated for 30 mins; format: ADME, cell-based, Erythrocyte
[2] = Hemolytic activity in sheep erythrocytes; format: ADME, cell-based, Ovis aries, Erythrocyte
[3] = Therapeutic index, ratio of HC90 for hemolytic activity in human erythrocytes to MIC against Enterococcus faecalis ATCC 29212; format: toxicity, cell-based; settings: read-out: TI
[4] = Hemolytic activity against RBC (unknown origin) at 100 ul after 4 hrs; format: ADME, cell-based, Erythrocyte; settings: red blood cells (unknown origin)
Erythrocyte [5] = experiment: Haemolytic activity in human RBC after 30 mins by spectrophotometric analysis; format: ADME, cell-based; settings: 0.5 h
Erythrocyte [6] = experiment: (§1) Haemolytic activity in human erythrocytes; format: ADME, cell-based; settings: erythrocyte
[7] = as §1; format: ADME, cell-based, Erythrocyte; settings: human erythrocytes
Erythrocyte [8] = experiment: Haemolytic activity in human RBC after 4 hrs by visual method; format: ADME, cell-based
[9] = Therapeutic index, ratio of HD100 for hemolytic activity in human erythrocytes to MIC against Escherichia coli ATCC 25922; format: toxicity, cell-based; settings: read-out: TI
[10] = Therapeutic index, ratio of HD100 for hemolytic activity in human erythrocytes to MIC against Enterococcus faecalis ATCC 29212; format: toxicity, cell-based; settings: read-out: TI
[11] = Haemolytic activity in human RBC after 4 hrs; format: ADME, cell-based, Erythrocyte; settings: human red blood cells
[12] = Hemolytic activity in sheep RBC incubated for 30 mins; format: ADME, cell-based, Ovis aries, Erythrocyte; settings: sheep red blood cells
[13] = Therapeutic index, ratio of HD100 for hemolytic activity in human RBC to MIC against Candida albicans; format: toxicity; settings: human red blood cells, read-out: TI
[14] = Therapeutic index, ratio of HC90 for hemolytic activity in human erythrocytes to MIC against Staphylococcus epidermidis ATCC 12228; format: toxicity, cell-based; settings: read-out: TI
[15] = Therapeutic index, ratio of HD100 for hemolytic activity in human erythrocytes to MIC against Pseudomonas aeruginosa ATCC 27853; format: toxicity, cell-based; settings: read-out: TI
[16] = Therapeutic index, ratio of HD100 for hemolytic activity in human RBC to MIC against Pseudomonas aeruginosa H187; format: toxicity; settings: human red blood cells, read-out: TI
[17] = Therapeutic index, ratio of HC90 for hemolytic activity in human erythrocytes to MIC against Escherichia coli ATCC 25922; format: toxicity, cell-based; settings: read-out: TI
[18] = Therapeutic index, ratio of HD100 for hemolytic activity in human RBC to MIC against Enterococcus faecalis ATCC 29212; format: toxicity; settings: human red blood cells, read-out: TI
[19] = Therapeutic index, ratio of HD100 for hemolytic activity in human RBC to MIC against Staphylococcus aureus K147; format: toxicity; settings: human red blood cells, read-out: TI
[20] = Therapeutic index, ratio of HD100 for hemolytic activity in human erythrocytes to MIC against Staphylococcus aureus ATCC 29213; format: toxicity, cell-based; settings: read-out: TI
[21] = Haemolytic activity in human RBC incubated for 1 hr; format: ADME, cell-based, Erythrocyte; settings: human red blood cells
[22] = Therapeutic index, ratio of HD100 for hemolytic activity in human RBC to MIC against Escherichia coli UB1005; format: toxicity; settings: human red blood cells, read-out: TI
Lipopolysaccharide (LPS) = experiment: Displacement of Dansyl-polymyxin from Pseudomonas aeruginosa LPS by fluorescence method; settings: read-out: I50
[23] = Therapeutic index, ratio of HD100 for hemolytic activity in human erythrocytes to MIC against methicillin-resistant Staphylococcus aureus ATCC 4330; format: toxicity, cell-based; settings: read-out: TI
[24] = Haemolytic activity in human erythrocytes at 100 ug/ml after 30 mins relative to control; format: ADME, cell-based, Erythrocyte; settings: read-out: Activity
[25] = Therapeutic index, ratio of HC90 for hemolytic activity in human erythrocytes to MIC against Staphylococcus aureus ATCC 25923; format: toxicity, cell-based; settings: read-out: TI

CC(C)C[C@@H]1NC(=O)[C@H](CCCN)NC(=O)[C@H](C(C)C)NC(=O)[C@@H]2CCCN2C(=O)[C@@H](Cc2ccccc2)NC(=O)[C@H](CC(C)C)NC(=O)[C@H](CCCN)NC(=O)[C@H](C(C)C)NC(=O)[C@@H]2CCCN2C(=O)[C@@H](Cc2ccccc2)NC1=O (cyclo(L[dF]PV[Orn]L[dF]PV[Orn]))
HC50 at 0.5 h [1]: 5 to 10 µg/mL | HC50 [2]: 25 to 35 µg/mL | selectivity ratio [3]: 1.5 | HC50 at 4 h [4]: 5 to 31.2 µg/mL | HC90 (Erythrocyte [5]): 12 µg/mL | Activity (Erythrocyte [6]): 62.5 µg/mL | HC50 [7]: 12 µg/mL | HD100 (Erythrocyte [8]): 12.5 µg/mL | selectivity ratio [9]: 2 | selectivity ratio [10]: 7.8 | HC50 at 4 h [11]: 17.5 µg/mL | HC50 at 0.5 h [12]: 25 to 35 µg/mL | selectivity ratio [13]: 4 | selectivity ratio [14]: 6 | selectivity ratio [15]: 1 | selectivity ratio [16]: 0.6 | selectivity ratio [17]: 0.38 | selectivity ratio [18]: 4.5 | selectivity ratio [19]: 8.3 | selectivity ratio [20]: 15.6 | HC50 at 1 h [21]: 14.3 µg/mL | selectivity ratio [22]: 2 | IC50 (Lipopolysaccharide (LPS)): 295 µM | selectivity ratio [23]: 7.8 | hemolysis at 0.5 h, 100 ug/ml [24]: 80% | selectivity ratio [25]: 3
